The series is described as follows: photoluminescence quantum yield (fraction); solvent given as SMILES.

Where “and” joins values, the source holds several entries; their conditions need not be identical. Equal entries are not always repeated.

For `N#Cc1c(-n2c3ccc(-c4ccccc4)cc3c3cc(-c4ccccc4)ccc32)c(-n2c3ccccc3c3ccccc32)c(-n2c3ccc(-c4ccccc4)cc3c3cc(-c4ccccc4)ccc32)c(-n2c3ccccc3c3ccccc32)c1-n1c2ccc(-c3ccccc3)cc2c2cc(-c3ccccc3)ccc21`, the photoluminescence quantum yield (in Cc1ccccc1) was determined as 0.83.

The compound `Cc1ccc(-c2ccc3ccc4cc(C(C)(C)C)cc5ccc2c3c45)cc1` registered a photoluminescence quantum yield (in C1CCOC1) of 0.41 and a photoluminescence quantum yield (in ClCCl) of 0.38.

Consider `F[B-]1(F)OC(c2ccc(C(F)(F)F)cc2)=Cc2cc(Cl)nc[n+]21`, for which the photoluminescence quantum yield runs as follows: (in C1CCOC1) 0.01; (in CC#N) 0.01; (in Cc1ccccc1) 0.04; (in ClC(Cl)Cl) 0.01; (in ClCCl) 0.01.

With `CC1(C)c2ccccc2N(c2ccc(-c3cccc(C#N)c3)cc2)c2ccccc21`, the photoluminescence quantum yield runs as follows: (in Cc1ccccc1) 0.112; (in N#Cc1ccc2c(c1)c1ccccc1n2-c1cccc(-n2c3ccccc3c3ccccc32)c1) 0.15.

For the setting “in C1CCOC1”, `C[Si]1(c2ccccc2)C(c2ccc3c(c2)c2ccccc2n3-c2ccccc2)=C(c2ccccc2)C(c2ccccc2)=C1c1ccc2c(c1)c1ccccc1n2-c1ccccc1` returned a photoluminescence quantum yield of 0.04.

On to `c1ccc(-c2nc(-c3ccccc3)nc(-c3ccc(-n4c5ccc(-n6c7ccccc7c7ccccc76)cc5c5cc(-n6c7ccccc7c7ccccc76)ccc54)cc3)n2)cc1`, for which the photoluminescence quantum yield (in Cc1ccccc1) was determined as 0.57.

For `CC/[NH+]=c1\cc2oc3cc(NCCO)c4ccccc4c3nc-2cc1C`, the photoluminescence quantum yield was determined as 0.49 (in CCO) and 0.36 (in O).

For the compound `C[N+]1=C(/C=C/C=C2/N(CCCc3ccccc3)c3ccccc3C2(C)C)C(C)(C)c2ccccc21`, under “in CS(C)=O”, the photoluminescence quantum yield was found to be 0.08.

`COc1ccc(-c2ccc(-c3ccccc3)cc2)cc1` returned a photoluminescence quantum yield (in C1CCCCC1) of 0.7.

The compound `CCCC1=C(CCC)c2cccc3c2c(cc2nc4ccccc4nc23)O1` had a photoluminescence quantum yield (in ClCCl) of 0.52.

For the compound `[NH3+]c1cc([NH3+])cc(-c2[nH+]c3ccccc3s2)c1`, under “in O”, the photoluminescence quantum yield was found to be 0.008.

For `CCCCn1c(-c2ccc(-c3nnc(-c4ccc(-c5nc(-c6ccccc6)c(-c6ccccc6)n5CCCC)cc4)o3)cc2)nc(-c2ccccc2)c1-c1ccccc1`, under “in ClCCl”, the photoluminescence quantum yield turned out to be 0.69.

For the compound `COC(=O)c1cccc2c1C#Cc1c(NC(C)=O)cccc1OCCCO2`, the photoluminescence quantum yield worked out at 0.29 (in CC#N) and 0.33 (in ClCCl).

Regarding `c1ccc(-c2cc(-c3nnc(-c4ccc(N5c6ccccc6Oc6ccccc65)cc4)o3)c(-c3ccccc3)c(-c3ccccc3)c2-c2ccccc2)cc1`, the photoluminescence quantum yield runs as follows: (in Cc1ccccc1) 0.264; (in c1ccc(-n2c(-c3c(-n4c5ccccc5c5ccccc54)cccc3-n3c4ccccc4c4ccccc43)nc3ccccc32)cc1) 0.93.

In turn, `CCCCC1(CCCC)c2cc(C#Cc3ccc4ccc5cccc6ccc3c4c56)ccc2-c2ccc(C#Cc3ccc4ccc5cccc6ccc3c4c56)cc21` showed a photoluminescence quantum yield (in Cc1ccccc1) of 0.99.

Regarding `CCOC(=O)c1ccc(O)c(-c2[nH]c(=O)n3c2-c2ccccc2C3=O)c1`, the photoluminescence quantum yield amounted to 0.49 (in CC#N), 0.4 (in CO) and 0.59 (in ClCCl).

As to `c1ccc2ccccc2c1`, where the note is “in C1CCCCC1”, the photoluminescence quantum yield was 0.23 and 0.42.

`O=C1c2ccccc2-c2cc3ccccc3c(=O)n21` displayed a photoluminescence quantum yield (in CC#N) of 0.16, a photoluminescence quantum yield (in CO) of 0.02, a photoluminescence quantum yield (in CS(C)=O) of 0.12 and a photoluminescence quantum yield (in ClC(Cl)Cl) of 0.18.

Turning to `Nc1ccc(N2C(=O)c3ccc4c5ccc6c7c(ccc(c8ccc(c3c48)C2=O)c75)C(=O)N(c2ccc(O)cc2)C6=O)cc1`, the photoluminescence quantum yield (in CN(C)C=O) amounted to 0.95.

Consider `C[Si]1(C)c2cc(-c3ccccc3)ccc2C=Cc2ccc(-c3ccccc3)cc21`, for which, under “in ClCCl”, the photoluminescence quantum yield came out at 0.9.

As to `CCCCCCOc1cc(C=C(C#N)C#N)c(OCCCCCC)cc1C=C(C#N)C#N`, the photoluminescence quantum yield (in ClCCl) was determined as 0.868.

Regarding `COc1ccc(C2=[O+][B-](F)(F)OC(c3ccc4c(c3)Cc3ccccc3-4)=C2)cc1`, where the note is “in CC#N”, the photoluminescence quantum yield came out at 0.94.

The compound `O=C(O)C1=C(C(=O)O)C2=C[C@H]3c4ccccc4[C@]2(S1)c1ccccc13` gave a photoluminescence quantum yield (in ClCCl) of 0.72.

Regarding `CCOC(=O)CC[N+]1=c2cc3c(cc2CCC1)=Cc1c(c2ccc(N(C)C)cc2oc1=O)O3`, the photoluminescence quantum yield by setting is: (in CC#N) 0.217; (in CO) 0.152; (in ClCCl) 0.469; (in O) 0.03.

As to `CC(C)(C)NC1=C2C=CC=[N+]2[B-](F)(F)n2cccc21`, the photoluminescence quantum yield stood at 0.63 (in C1CCCCC1); 0.002 (in CC(C)=O); 0.002 (in CCO); 0.012 (in CCOC(C)=O); 0.001 (in CO); 0.006 (in OCC(F)(F)F).

The compound `Cc1cc2sccc2c2[nH]c3ccccc3c12` returned a photoluminescence quantum yield (in ClCCl) of 0.053.

As for `Cc1ccc(C)n1-c1cccc(C#N)c1`, the photoluminescence quantum yield worked out at 0.006 (in C1CCOC1); 0.004 (in CCCCCC); 0.004 (in CCCCCl); 0.006 (in CCOCC); 0.003 (in ClCCl).

Regarding `N#CC1=c2c3cccc4cccc(c43)n2[B-](F)(F)[n+]2ccccc21`, the photoluminescence quantum yield reads like this: (in C1CCOC1) 0.86; (in CC#N) 0.96; (in CCCCCC) 0.75; (in Cc1ccccc1) 0.75; (in ClCCl) 0.88.

Consider `COc1c2ccccc2c(OC)c2c1c1cccc(OC)c1n2C`, for which the photoluminescence quantum yield (in C1CCCCC1) came out at 0.39, the photoluminescence quantum yield (in CC#N) was 0.4, the photoluminescence quantum yield (in CO) turned out to be 0.39 and the photoluminescence quantum yield (in ClCCl) came out at 0.44.

Consider `COC(=O)/C(C#N)=c1\s/c(=c2/s/c(=C(/C#N)C(=O)OC)c3cc(-c4ccc(C(F)(F)F)cc4)sc23)c2sc(-c3ccc(C(F)(F)F)cc3)cc12`, for which the photoluminescence quantum yield (in Cc1ccccc1) was 0.212.

The compound `F[B-]1(F)OC(c2ccccc2)=Cc2c3ccccc3c3ccccc3[n+]21` had a photoluminescence quantum yield (in ClC(Cl)Cl) of 0.131.

`COc1ccc(/C=C/C(F)(F)F)c(N)c1`: where the note is “in C1CCOC1”, the photoluminescence quantum yield is 0.32.

For the compound `ClC(Cl)=C1c2ccccc2C(C2(Cl)c3ccccc3C(=C(Cl)Cl)c3ccccc32)c2ccccc21` (stereo not given), the photoluminescence quantum yield reads like this: (in C1CCCCC1) 0.3; (in CCCCCO) 0.25; (in CCCCO) 0.21; (in CCCO) 0.19; (in CCO) 0.17; (in CO) 0.15.

`N#Cc1ccc(-c2nc(-c3ccccc3)c(-c3ccccc3)[nH]2)cc1` gave a photoluminescence quantum yield (in CO) of 0.52.

For `Cc1ccccc1C1=C2C=c3c(oc4ccc(C(C)(C)C)cc34)=[N+]2[B-](F)(F)n2c1cc1c3cc(C(C)(C)C)ccc3oc12`, the photoluminescence quantum yield reads like this: (in C1CCCCC1) 0.89; (in CCOC(C)=O) 0.93; (in CO) 0.86.

In turn, `COc1ccc(-c2nc(-c3cccc(C#N)c3)[nH]c2-c2ccc(OC)cc2)cc1` gave a photoluminescence quantum yield (in CO) of 0.06.

`CCc1c(C)c2n(c1C)[B-](F)(F)[N+]1=C(C=C3c4ccccc4-c4ccccc43)C=CC1=C2C` gave a photoluminescence quantum yield (in C1CCCCC1) of 0.73.

In the case of `CN(C)c1ccc(/C=C/c2nc3cc(Br)ccc3nc2-c2ccccc2)cc1`, the photoluminescence quantum yield (in C1COCCO1) came out at 0.14, the photoluminescence quantum yield (in CC#N) amounted to 0.01 and the photoluminescence quantum yield (in ClCCl) was 0.17.
